Here are results for two compounds from PMC6747315, “Formation of α-Farnesene in Tea (Camellia sinensis) Leaves Induced by Herbivore-Derived Wounding and Its Effect on Neighboring Tea Plants” (International Journal of Molecular Sciences, 2019).

This experiment has as its target T1, CsAFS (α-farnesene synthase) (Camellia sinensis, UniProt A0A3G3IRF8).
T1 construct: full-length ORF cloned in pET32a (EcoRV/SalI); cloning primers encode N-terminus MDCSKGML and C-terminus LIEPLKIN
T1 sequence (A0A3G3IRF8 1-560): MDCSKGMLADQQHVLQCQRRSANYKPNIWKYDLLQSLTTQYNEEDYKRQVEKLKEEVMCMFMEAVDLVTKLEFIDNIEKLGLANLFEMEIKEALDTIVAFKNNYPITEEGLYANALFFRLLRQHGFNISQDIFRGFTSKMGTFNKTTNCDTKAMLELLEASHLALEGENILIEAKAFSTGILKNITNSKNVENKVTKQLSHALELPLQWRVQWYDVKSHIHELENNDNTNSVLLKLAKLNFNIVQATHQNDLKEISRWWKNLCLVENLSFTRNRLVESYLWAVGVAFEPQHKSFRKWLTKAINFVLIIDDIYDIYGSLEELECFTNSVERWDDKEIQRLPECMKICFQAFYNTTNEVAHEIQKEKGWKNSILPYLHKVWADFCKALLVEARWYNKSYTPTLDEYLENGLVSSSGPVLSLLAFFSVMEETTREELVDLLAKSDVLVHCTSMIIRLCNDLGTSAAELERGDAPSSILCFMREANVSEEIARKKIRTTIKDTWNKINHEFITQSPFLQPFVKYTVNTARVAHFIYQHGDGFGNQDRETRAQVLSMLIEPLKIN
Put plainly: SPME GC-MS product analysis. The format is biochemical. The conditions noted are these: 15 µg protein in 1 mL, 10 mM MgCl2, 1 mM MnCl2, 500 mM KCl, pH 7.0, 30 °C, 1 h.

Turning to `CC(C)=CCC/C(C)=C/CC/C(C)=C/COP(=O)(O)OP(=O)(O)O` [farnesyl diphosphate], where the note is “product α-farnesene”, the “SPME GC-MS product analysis” value was “recombinant protein CsAFS converted substrate farnesyl diphosphate (FPP) into α-farnesene as the final product”.
Consider `CC(C)=CCC/C(C)=C/COP(=O)(O)OP(=O)(O)O` [geranyl diphosphate], for which the “SPME GC-MS product analysis” value (product β-ocimene) was “with geranyl diphosphate (GPP) as substrate, the CsAFS enzyme produced only β-ocimene”.
